Measurements reported in article PMC4865845, “A human genome-wide loss-of-function screen identifies effective chikungunya antiviral drugs” (Nature Communications, 2016).

Tested on: CHIKV
Type: cell-based, chikungunya virus

Hs_SULF1_1 (sense TCCGTCGAATTTGAAGGTGAA; chemistry not given here) [reference compound]
Score_si1: -2.1

Hs_SULF1_3 (sense CTGGTGTTTGCGTACAGTTAA; chemistry not given here) [reference compound]
Score_si4: -0.77

Hs_SULF1_4 (sense AGCATGGATTTGATTATGCAA; chemistry not given here) [reference compound]
Score_si2: -1.41

Hs_SYMPK_1 (sense CAGGAGCTGATCATCAACAAA; chemistry not given here)
Score_si3: 1.54

Hs_SYMPK_2 (sense CAGCCTGGTGACACAGTTCAA; chemistry not given here)
Score_si2: 1.86

Hs_TADA3L_1 (sense CTGACCGAACTGGACACTAAA; chemistry not given here) [reference compound]
Score_si2: -1.72

Hs_TADA3L_2 (sense ACCGACTGGCAGGATAAGAAA; chemistry not given here) [reference compound]
Score_si1: -1.99

Hs_TAZ_2 (sense CCGCCACATCTGGAACCTGAA; chemistry not given here)
Score_si1: 2.45

Hs_TGIF_1 (sense TACCCAGAGGACACTTGTAAA; chemistry not given here)
Score_si1: 1.41

Hs_TGIF_4 (sense TACCACTGTGACTGCATTGAA; chemistry not given here)
Score_si4: 0.65

Hs_TGIF_6 (sense TCCAAGAACTATAAACTTAAA; chemistry not given here)
Score_si3: 1

Hs_THRAP6_1 (sense ATGAAAGATTATTGTAATAAA; chemistry not given here) [reference compound]
Score_si2: -1.47

Hs_THRAP6_6 (sense CTGAGATTGGTATATGACAAA; chemistry not given here) [reference compound]
Score_si1: -1.48

Hs_TMPIT_1 (sense CTGGTGGGTGTTCCATCACTA; chemistry not given here)
Score_si1: 2.87

Hs_TOR2A_2 (CACGGGTGGCGAGCAGATCAA; chemistry not given here)
Score_si1: 2.35

Hs_TRAF2_2 (CAGAGTTATTAAACCATTCAA; chemistry not given here) [reference compound]
Score_si2: -0.92

Hs_TRAF2_4 (CTGGACCAAGACAAGATTGAA; chemistry not given here) [reference compound]
Score_si1: -1.15

Hs_TRAF2_5 (CACGAGGGCATATATGAAGAA; chemistry not given here) [reference compound]
Score_si4: -0.76

Hs_TREX2_1 (CACAATGGCTTTGATTATGAT; chemistry not given here) [reference compound]
Score_si1: -2.42

Hs_TRRAP_1 (AAGATTCGACAGCAAGTTAAA; chemistry not given here)
Score_si4: 1.01

Hs_TUSC1_1 (TCCCTGTACATCTAATATATA; chemistry not given here) [reference compound]
Score_si1: -1.75

Hs_TUSC1_2 (ACCGATCATTCTATTATCATT; chemistry not given here) [reference compound]
Score_si2: -1.18

Hs_U2AF2_3 (TAAGACGAATTTGCTCATTAA; chemistry not given here)
Score_si1: 2.74

Hs_UBE2C_3 (GCCCTTGTATATTAAATAAAT; chemistry not given here) [reference compound]
Score_si4: -0.41

Hs_UBE2C_4 (CAGGACCATTCTGCTCTCCAT; chemistry not given here) [reference compound]
Score_si3: -0.75

Hs_UBE2C_8 (GAGCCCTTGTATATTAAATAA; chemistry not given here) [reference compound]
Score_si1: -1.05

Hs_UBE2C_9 (AGCCCTTGTATATTAAATAAA; chemistry not given here) [reference compound]
Score_si2: -0.83

Hs_UIP1_3 (CTCGAGGGTCTGTATATCACA; chemistry not given here) [reference compound]
Score_si4: 0.1

Hs_ULK2_6 (CAGCCTGAGATACGTGCCTTA; chemistry not given here) [reference compound]
Score_si1: -2.62

Hs_UMPS_1 (CACCGCATTGATACTATAATA; chemistry not given here)
Score_si4: 1.35

Hs_UMPS_2 (CAGGAGAAACCTGTTTAATCA; chemistry not given here)
Score_si1: 3.14

Hs_UMPS_4 (AAGCTTCTCAGGCTTATGCAA; chemistry not given here)
Score_si3: 1.59

Hs_UQCRFS1_1 (CAGCATGATCTAGATCGAGTA; chemistry not given here)
Score_si1: 3.18

Hs_UQCRFS1_2 (CAAACATTAATGTGAAATAAA; chemistry not given here)
Score_si4: 0.3

Hs_WDR40A_1 (CAGCATCAATGTGATTAGTAA; chemistry not given here) [reference compound]
Score_si1: -2.68

Hs_WDR40A_2 (AACACTGATAATAGGAAGTAA; chemistry not given here) [reference compound]
Score_si4: -0.22

Hs_WIG1_1 (CAGCATTTAGAGAGCAAGCAA; chemistry not given here)
Score_si1: 2.55

Hs_WIG1_2 (CAGGCTCATTATCAGGGTAAA; chemistry not given here)
Score_si4: -0.33

Hs_XRN1_1 (CAGGTCGTAAATATCAAATAA; chemistry not given here)
Score_si3: 1.08

Hs_XRN1_2 (AAGGAAATAGATAAACTGTAA; chemistry not given here)
Score_si1: 1.94

Hs_YEATS4_1 (AAGGGTGTTACTATCGTTAAA; chemistry not given here)
Score_si1: 1.23

Hs_YEATS4_2 (TTGGTAGTAAGCTAAACTGAA; chemistry not given here)
Score_si2: 1.07

Hs_YEATS4_3 (AAAGGGTGTTACTATCGTTAA; chemistry not given here)
Score_si3: 0.92

Hs_ZA20D1_1 (AAGGAGGTTCTCAGTCAATAA; chemistry not given here)
Score_si2: 1.25

Hs_ZA20D1_2 (CAGGATGACATCGTTCAAGAA; chemistry not given here)
Score_si3: 1.15

Hs_ZBTB24_1 (CTCCAGGAAATTAAATATTTA; chemistry not given here)
Score_si2: 1.74

Hs_ZBTB24_2 (CAGCATGTGTCTGTAATTGTA; chemistry not given here)
Score_si1: 2.57

Hs_ZNF261_1 (AAGGTCTTATCTGAAAGGTAA; chemistry not given here) [reference compound]
Score_si1: -2.35

Hs_ZZZ3_1 (CAGCCTGATGGGAACACTAAA; chemistry not given here) [reference compound]
Score_si1: -2.9

Hs_ZZZ3_2 (TAGGAATTTACCTGAATATAA; chemistry not given here) [reference compound]
Score_si2: -2.58

n268452 (AGCTGGCCATCGAAAGGTA; chemistry not given here)
Score_si1: 0.81

s29 (CCCATAATATCATTGAGAA; chemistry not given here)
Score_si2: 1.87

s79 (sense CCAGCTATCTATAACCTTA; chemistry not given here)
Score_si4: 2.02

s81 (sense GGATGATTTAGAATTGTCA; chemistry not given here)
Score_si3: 2.08

s322 (GGTTGTCCTTGAGTAATAA; chemistry not given here)
Score_si1: 1.71

s617 (sense GGTCTTGGAGGGAATCCTA; chemistry not given here)
Score_si2: 1.33

s619 (sense CTGCAGTTGTGGTTGGATA; chemistry not given here)
Score_si1: 1.92

s915 (CATCCAGTCTGTATACGAA; chemistry not given here)
Score_si1: 1.9

s916 (GCATCGCAAACTTCACCAA; chemistry not given here)
Score_si3: 1.06

s922 (CATTAACATTGTTCGCAAA; chemistry not given here)
Score_si4: 1.81

s923 (AATTCAAGCTATGAAGATA; chemistry not given here)
Score_si2: 1.99

s992 (GTGTTTTTCCGTAAGCATA; chemistry not given here) [reference compound]
Score_si3: -0.52

s993 (GGTGCGTCATATGCAGGAA; chemistry not given here) [reference compound]
Score_si2: -0.55

s994 (GAGGAAGTCCTAAATCACA; chemistry not given here) [reference compound]
Score_si4: 1.87

s1522 (sense GGATCAAGCTGCCCATCTA; chemistry not given here)
Score_si2: 1.17

s1523 (sense CCGGCATCTTTGCTACCTA; chemistry not given here)
Score_si4: 0.87

s1698 (CGAACTACACCTTCAGCTA; chemistry not given here) [reference compound]
Score_si3: -0.99

s1907 (sense GAACTTAGCTAAATTGACT; chemistry not given here)
Score_si4: 0.58

s2529 (sense GCACCCGGTTTATCAGTAA; chemistry not given here)
Score_si4: 0.17

s2664 (sense CGTCCATGTTTATCTACAA; chemistry not given here)
Score_si4: 0.12

s2665 (sense GCTTCAGGATGTGCCCAAA; chemistry not given here)
Score_si3: 0.58

s2822 (sense TGCTGACTTTTAACCCACA; chemistry not given here)
Score_si4: 1

s3112 (GGATGAGATTCTAGACTTT; chemistry not given here)
Score_si3: 1.86

s3113 (GGCGAGAGGGTATCAAGTA; chemistry not given here)
Score_si4: 1.79

s3114 (GAAGAGCAGTCACAGATCA; chemistry not given here)
Score_si2: 2.05

s3145 (GACCCTTACCTGGAAGTTT; chemistry not given here)
Score_si2: 0.19

s3146 (GACCATGGATAATAAGAAA; chemistry not given here)
Score_si4: -0.15

s3162 (CATTTCGACTGGATCATAT; chemistry not given here)
Score_si1: 1.86

s3163 (CTATCTTGGGTTTACCGTA; chemistry not given here)
Score_si2: 1.54
